Measured values: patent US9526785B2, “Pharmaceuticals for oral delivery” (Enteris BioPharma, Inc., priority 2013, dated 2016)
Where two headings read alike, the source gives them in different places.

Experiment: Tigecycline plasma PK and % F after PO enteric-coated capsule in dogs
Assay type: in vivo, Beagle dogs
Settings: female, beagle, dog, plasma, po; for concentration at 60 min / concentration at 75 min / concentration at 90 min / concentration at 120 min / concentration at 150 min / concentration at 180 min / concentration at 210 min / concentration at 240 min / concentration at 0 hr / concentration at 0.3 hr / concentration at 0.7 hr / concentration at 1 hr: Tigecycline Plasma Concentration; for concentration at 60 min / concentration at 75 min / concentration at 90 min / concentration at 120 min / concentration at 150 min / concentration at 180 min / concentration at 210 min / concentration at 240 min: SC424; for bioavailability: read-out: % F; for Tmax: read-out: Tmax (converted); for concentration at 0 hr / concentration at 0.3 hr / concentration at 0.7 hr / concentration at 1 hr: PO 30 mg unformulated enteric-coated capsule
Protocol: Adult beagle dogs weighing approximately 9 to 15 kg were used in the study. […] Room temperature was set to be maintained between approximately 20±5° C. Relative humidity was monitored but not controlled.
TEKLAD™ Certified Canine Diet was provided once daily in amounts (˜400 grams) appropriate for the size and age of the animals. Tap water was available ad libitum via automatic watering device or water bowls.
Oral dosing of enteric-coated capsules was accomplished by administering them to the back of the dog's mouth, followed by a chase of 5 mL water to ensure swallowing.
Water was provided ad libitum. […] Subsequently, each group of animals was dosed based on the protocol, i.e. either IV, or PO by capsule.
Minocycline (VWR international) was used as an internal standard. Sample processing/clean-up of plasma samples was carried out offline by protein precipitation with acidified acetonitrile using 0.5% trifluoroacetic acid (TFA).
The HPLC system consisted of Shimadzu SIL-HTc HPLC system equipped with dual Shimadzu LC-10ADvp isopumps, a Shimadzu CTO-10ASvp column temperature controller and a Shimadzu SPD-10Avp variable wavelength detector. […] Mobile phase A consisted of 23 mM phosphate buffer pH 2.5 with 4 mM 1-octanesulfonic acid, while mobile phase B consisting of 90% acetonitrile, 10% water, with 2 mM 1-octanesulfonic acid. […] The total runtime was 18 minutes per sample. The mobile phase flow rate was 1.2 mL/min. Detection was performed using the SPD-10Avp variable wavelength detector set at 350 nm, with a sensitivity of 0.001 aufs.
The samples were then centrifuged under refrigeration at 13 k rpm for 5 minutes. The supernatant was taken and the liquid removed to dryness under nitrogen in a turbovap. The dried extract was reconstituted in 60 μL of mobile phase A and the suspension was further centrifuged at 5 k rpm for 5 minutes to pellet any insoluble matter. The resulting supernatant was then injected onto the LC.
The unknown concentration in dog plasma samples was determined by interpolation of the peak area ratios of analyte:internal standard versus the ratio of their nominal concentrations into the regression line obtained from calibration standards spiked in pooled dog plasma. No regression weighting was used for the calculations. […] The calibration curve covered the range of 0.05 μg/mL to 5 μg/mL. […]
The capsules were enterically coated using a standard preclinical protocol to 10% weight gain. Two studies were conducted.

[1] = 15 mg, PO 15 mg enteric-coated capsule with 500 mg CA and 100 mg LLC, mean
[2] = 15 mg, PO 15 mg unformulated enteric-coated capsule, individual dogs
[3] = 15 mg, PO 15 mg unformulated enteric-coated capsule, mean
[4] = 30 mg, 30 mg Formulated (500 mg CA, 100 mg LLC) enteric coated capsule, Study 2 (SC430), mean (% CV) excluding animal 5256

## CN(C)c1cc(NC(=O)CNC(C)(C)C)c(O)c2c1C[C@H]1C[C@H]3[C@H](N(C)C)C(O)=C(C(N)=O)C(=O)[C@@]3(O)C(O)=C1C2=O [Tigecycline]
[1]
  concentration at 60 min: 18.7 ng/mL
  concentration at 75 min: 46.1 ng/mL
  concentration at 90 min: 53.8 ng/mL
  concentration at 120 min: 51.5 ng/mL
  concentration at 150 min: 41.7 ng/mL
  concentration at 180 min: 37.4 ng/mL
  concentration at 210 min: 36.3 ng/mL
  concentration at 240 min: 35.2 ng/mL
[2]
  concentration at 60 min: 0 ng/mL
  concentration at 75 min: 0 ng/mL
  concentration at 90 min: 0 ng/mL
  concentration at 120 min: 0 ng/mL
  concentration at 150 min: 0 ng/mL
  concentration at 180 min: 0 ng/mL
  concentration at 210 min: 0 ng/mL
  concentration at 240 min: 0 ng/mL
[3]
  concentration at 60 min: 0 ng/mL
  concentration at 75 min: 0 ng/mL
  concentration at 90 min: 0 ng/mL
  concentration at 120 min: 0 ng/mL
  concentration at 150 min: 0 ng/mL
  concentration at 180 min: 0 ng/mL
  concentration at 210 min: 0 ng/mL
  concentration at 240 min: 0 ng/mL
15 mg, target dose 15 mg, enterically coated capsule, read-out: Observed Mean Cmax
  Cmax: 75.5 ng/mL
15 mg, target dose 15 mg, enterically coated capsule, time scale adjusted to 4 hours, read-out: Observed AUC(0-t)
  AUC(0-t): 133 ng·h/mL
[4]
  bioavailability: 14.9%
  Tmax: 1.58 h
30 mg, 30 mg Formulated (500 mg CA, 100 mg LLC) enteric coated capsule, Study 2 (SC430), mean (% CV) excluding animal 5256, read-out: AUC(0-t)
  AUC(0-t): 367 ng·h/mL
30 mg, 30 mg Formulated (500 mg CA, 100 mg LLC) enteric coated capsule, Study 2 (SC430), mean (% CV) excluding animal 5256, read-out: Cmax
  Cmax: 121 ng/mL
30 mg, 30 mg Unformulated enteric coated capsule, Study 2 (SC430)
  bioavailability: 0%
30 mg, PO 30 mg enteric-coated capsule with 500 mg CA and 100 mg LLC ([…]), SC430, mean excluding animal 5256, read-out: AUC(0-t)
  AUC(0-t): 367 ng·h/mL
30 mg, PO 30 mg enteric-coated capsule with 500 mg CA and 100 mg LLC ([…]), SC430, mean excluding animal 5256, read-out: Cmax
  Cmax: 121 ng/mL
30 mg, PO 30 mg enteric-coated capsule with 500 mg CA and 100 mg LLC ([…]), SC430, mean excluding animal 5256
  Tmax: 1.6 h
30 mg, PO 30 mg enteric-coated capsule with 500 mg CA and 100 mg LLC, SC430, calculated from IV PK data of SC431, mean excluding animal 5256
  bioavailability: 14.9%
30 mg, PO 30 mg unformulated enteric-coated capsule ([…]), SC430, individual dogs
  bioavailability: 0%
30 mg, PO 30 mg unformulated enteric-coated capsule ([…]), SC430, mean
  bioavailability: 0%
30 mg, Study 2 (SC430), 30 mg Formulated enteric coated capsule (500 mg citric acid, 100 mg LLC), oral, dogs, N=4 excluding animal 5256, mean (% CV)
  Tmax: 1.58 h
30 mg, Study 2 (SC430), 30 mg Unformulated enteric coated capsule (microcrystalline cellulose filler), oral, dogs, N=3, based on that study's IV arm
  bioavailability: 0%
30 mg, SC430, individual dogs
  concentration at 0 hr: 0 ng/mL
  concentration at 0.3 hr: 0 ng/mL
  concentration at 0.7 hr: 0 ng/mL
  concentration at 1 hr: 0 ng/mL
30 mg, SC430, mean
  concentration at 0 hr: 0 ng/mL
  concentration at 0.3 hr: 0 ng/mL
  concentration at 0.7 hr: 0 ng/mL
  concentration at 1 hr: 0 ng/mL
